According to the supplement of paper PMC8092582:
± gives the standard deviation of the averaged measurements.

Tested on: HeLa
Test: cell viability (CellTiter-Glo) relative to median of lowest-dilution wells of all drugs (fraction); higher = more viable cells
Procedure: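 HeLa control and CRISPR DDX11 knockout cells were seeded in 384-well plates and incubated for 72 h with each of 64 […] drugs at six concentrations. Viability was read with CellTiter-Glo and normalised to the median of the lowest (6th) dilution wells of all drugs. Two biological replicates (BR1, BR2) are averaged; the concentration unit is not stated.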

[1] = drug concentration (unit not stated): 0.04, genotype: DDX11 knockout
[2] = drug concentration (unit not stated): 0.04, genotype: control (DDX11 wild type)
[3] = drug concentration (unit not stated): 0.12, genotype: DDX11 knockout
[4] = drug concentration (unit not stated): 0.12, genotype: control (DDX11 wild type)
[5] = drug concentration (unit not stated): 0.37, genotype: DDX11 knockout
[6] = drug concentration (unit not stated): 0.37, genotype: control (DDX11 wild type)
[7] = drug concentration (unit not stated): 1.11, genotype: DDX11 knockout
[8] = drug concentration (unit not stated): 1.11, genotype: control (DDX11 wild type)
[9] = drug concentration (unit not stated): 3.33, genotype: DDX11 knockout
[10] = drug concentration (unit not stated): 3.33, genotype: control (DDX11 wild type)
[11] = drug concentration (unit not stated): 10, genotype: DDX11 knockout
[12] = drug concentration (unit not stated): 10, genotype: control (DDX11 wild type)
[13] = drug concentration (unit not stated): 0.01, genotype: DDX11 knockout
[14] = drug concentration (unit not stated): 0.01, genotype: control (DDX11 wild type)

| Compound | cell viability [1] | cell viability [2] | cell viability [3] | cell viability [4] | cell viability [5] | cell viability [6] | cell viability [7] | cell viability [8] | cell viability [9] | cell viability [10] | cell viability [11] | cell viability [12] | cell viability [13] | cell viability [14] | cell viability (drug concentration (unit not stated): 30, genotype: DDX11 knockout) | cell viability (drug concentration (unit not stated): 30, genotype: control (DDX11 wild type)) |
| --- | --- | --- | --- | --- | --- | --- | --- | --- | --- | --- | --- | --- | --- | --- | --- | --- |
| CC(C)(C)Cn1c(N)nc2ccc(-c3[nH]c(C(C)(C)C)nc3-c3ccc(F)cc3)nc21 | 0.937 ± 0.044 | 0.991 ± 0.022 | 0.96 ± 0.11 | 1.03 ± 0.022 | 0.942 ± 0.088 | 0.988 ± 0.15 | 0.921 ± 0.072 | 1.02 ± 0.1 | 0.84 ± 0.03 | 1.06 ± 0.15 | 0.737 ± 0.061 | 1.03 ± 0.25 | – | – | – | – |
| CO[C@@H](C(=O)N1Cc2[nH]nc(NC(=O)c3ccc(N4CCN(C)CC4)cc3)c2C1)c1ccccc1 | 0.971 ± 0.036 | 0.956 ± 0.032 | 0.877 ± 0.023 | 0.943 ± 0.18 | 0.906 ± 0.032 | 0.943 ± 0.13 | 0.744 ± 0.091 | 0.771 ± 0.065 | 0.624 ± 0.11 | 0.645 ± 0.046 | 0.466 ± 0.043 | 0.58 ± 0.1 | – | – | – | – |
| COc1ncc(-c2ccc3nccc(-c4ccnnc4)c3c2)cc1NS(=O)(=O)c1ccc(F)cc1F | 0.57 ± 0.044 | 0.661 ± 0.17 | 0.467 ± 0.073 | 0.528 ± 0.19 | 0.33 ± 0.046 | 0.458 ± 0.18 | 0.326 ± 0.042 | 0.416 ± 0.12 | 0.304 ± 0.04 | 0.373 ± 0.12 | – | – | 0.657 ± 0.037 | 0.774 ± 0.23 | – | – |
| C[C@@H]1COCCN1c1cc(-c2ccnn2C)c2ccnc(-c3ccn[nH]3)c2n1 | 1.03 ± 0.056 | 1.022 ± 0.0024 | 0.981 ± 0.083 | 1.02 ± 0.077 | 0.864 ± 0.021 | 0.959 ± 0.29 | 0.517 ± 0.036 | 0.696 ± 0.19 | 0.313 ± 0.045 | 0.398 ± 0.16 | 0.19 ± 0.086 | 0.227 ± 0.096 | – | – | – | – |
| O=c1cc(-c2cccc3c2Sc2ccccc2S3)oc(N2CCOCC2)c1 | – | – | 1.06 ± 0.039 | 0.988 ± 0.017 | 1.03 ± 0.027 | 1.01 ± 0.065 | 0.9944 ± 0.005 | 0.9715 ± 0.0052 | 0.963 ± 0.023 | 0.998 ± 0.064 | 0.843 ± 0.048 | 0.951 ± 0.17 | – | – | 0.633 ± 0.053 | 0.854 ± 0.38 |
| Cc1sc2c(c1C)C(c1ccc(Cl)cc1)=N[C@@H](CC(=O)OC(C)(C)C)c1nnc(C)n1-2 [(+)-JQ-1] | 1.02 ± 0.059 | 0.977 ± 0.047 | 0.93 ± 0.14 | 0.962 ± 0.17 | 0.849 ± 0.19 | 0.98 ± 0.49 | 0.671 ± 0.033 | 0.827 ± 0.26 | 0.5507 ± 0.0013 | 0.757 ± 0.2 | 0.5098 ± 0.0035 | 0.637 ± 0.18 | – | – | – | – |
| CC1(C)CCC(c2ccc(Cl)cc2)=C(CN2CCN(c3ccc(C(=O)NS(=O)(=O)c4ccc(N[C@H](CCN5CCOCC5)CSc5ccccc5)c(S(=O)(=O)C(F)(F)F)c4)cc3)CC2)C1 [ABT-263 (Navitoclax)] | 1.04 ± 0.045 | 0.983 ± 0.041 | 1 ± 0.021 | 1.02 ± 0.076 | 1.04 ± 0.014 | 1.022 ± 0.0018 | 0.976 ± 0.043 | 1.0084 ± 0.00083 | 1.02 ± 0.048 | 1.06 ± 0.058 | 0.841 ± 0.14 | 0.894 ± 0.22 | – | – | – | – |
| O=C(Nc1c[nH]nc1-c1nc2ccc(CN3CCOCC3)cc2[nH]1)NC1CC1 [AT9283] | 0.94 ± 0.015 | 0.939 ± 0.053 | 1.07 ± 0.076 | 1 ± 0.042 | 1.04 ± 0.046 | 1.07 ± 0.069 | 0.769 ± 0.4 | 0.799 ± 0.063 | 0.469 ± 0.41 | 0.504 ± 0.12 | – | – | 1.03 ± 0.023 | 0.988 ± 0.066 | – | – |
| CCN(CCO)CCCOc1ccc2c(Nc3cc(CC(=O)Nc4cccc(F)c4)[nH]n3)ncnc2c1 [AZD1152-HQPA (Barasertib)] | 0.927 ± 0.032 | 0.985 ± 0.18 | 0.912 ± 0.066 | 1.01 ± 0.22 | 0.883 ± 0.1 | 0.97 ± 0.28 | 0.888 ± 0.051 | 0.964 ± 0.21 | 0.831 ± 0.027 | 0.957 ± 0.25 | 0.813 ± 0.064 | 0.953 ± 0.23 | – | – | – | – |
| C=CCn1c(=O)c2cnc(Nc3ccc(N4CCN(C)CC4)cc3)nc2n1-c1cccc(C(C)(C)O)n1 [AZD1775] | 0.9297 ± 0.0031 | 0.962 ± 0.028 | 0.922 ± 0.021 | 0.951 ± 0.021 | 0.85 ± 0.048 | 0.959 ± 0.025 | 0.423 ± 0.12 | 0.615 ± 0.014 | 0.213 ± 0.0052 | 0.288 ± 0.11 | 0.0863 ± 0.058 | 0.092 ± 0.087 | – | – | – | – |
| C[C@@H]1COCCN1c1cc(C2([S@](C)(=N)=O)CC2)nc(-c2cc[nH]c3nccc2-3)n1 [AZD6738] | 1.04 ± 0.026 | 1.04 ± 0.022 | 1.03 ± 0.046 | 1.03 ± 0.019 | 0.992 ± 0.045 | 0.971 ± 0.022 | 0.862 ± 0.0099 | 0.957 ± 0.13 | 0.648 ± 0.036 | 0.913 ± 0.29 | 0.366 ± 0.094 | 0.55 ± 0.24 | – | – | – | – |
| NC(=O)Nc1cc(-c2cccc(F)c2)sc1C(=O)N[C@H]1CCCNC1 [AZD7762] | 1.011 ± 0.0048 | 1.04 ± 0.043 | 0.992 ± 0.051 | 0.959 ± 0.023 | 0.819 ± 0.055 | 0.896 ± 0.16 | 0.36 ± 0.022 | 0.647 ± 0.3 | 0.142 ± 0.014 | 0.299 ± 0.12 | – | – | 1.08 ± 0.072 | 1.02 ± 0.025 | – | – |
| C[C@@H](Nc1cc(F)cc(F)c1)c1cc(C(=O)N(C)C)cc2c(=O)cc(N3CCOCC3)oc12 [AZD8186] | 0.961 ± 0.075 | 1.01 ± 0.036 | 0.946 ± 0.098 | 1.01 ± 0.027 | 0.887 ± 0.049 | 0.952 ± 0.076 | 0.847 ± 0.075 | 0.92 ± 0.12 | 0.764 ± 0.082 | 0.887 ± 0.17 | 0.654 ± 0.13 | 0.908 ± 0.19 | – | – | – | – |
| CCn1nc(C2CCN(C(=O)CCO)CC2)nc1-c1cnc(N)c(-c2nnc(C(C)(C)C)o2)n1 [AZD8835] | 1.08 ± 0.046 | 1.07 ± 0.014 | 0.987 ± 0.09 | 1.05 ± 0.027 | 0.908 ± 0.098 | 0.988 ± 0.078 | 0.876 ± 0.059 | 0.98 ± 0.12 | 0.803 ± 0.077 | 0.996 ± 0.057 | 0.785 ± 0.052 | 1.05 ± 0.03 | – | – | – | – |
| CN(Cc1cnc2nc(N)nc(N)c2n1)c1ccc(C(=O)N[C@@H](CCC(=O)O)C(=O)O)cc1 [Abitrexate (Methotrexate)] | 0.79 ± 0.24 | 0.723 ± 0.34 | 0.772 ± 0.21 | 0.665 ± 0.35 | 0.725 ± 0.17 | 0.606 ± 0.33 | 0.462 ± 0.08 | 0.58 ± 0.31 | – | – | – | – | 0.864 ± 0.26 | 0.969 ± 0.64 | – | – |
